From patent publication US10010547B2 (CASCADIAN THERAPEUTICS, INC., priority 2014, dated 2018)
Where a name gives a salt, the structure may show the parent alone. Read-outs that look alike come from different tables or passages of the source.

Key:
Chk-1 kinase = Chk-1 kinase (Homo sapiens (Human), UniProt O14757); experiment: Chk-1 Kinase Inhibiting Activity (33P-ATP filter assay, CHKtide substrate); type: biochemical
Method in brief: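 Full-length N-terminal GST-tagged human Chk-1 from insect cells, 0.5 nM final, with 20 μM peptide substrate and 33P-ATP in HEPES pH 7.5 buffer with 1% DMSO. Reaction ran 120 minutes at room temperature; incorporated radioactivity captured on P81 filters and counted for IC50.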

MIA PaCa-2 cells = experiment: Gemcitabine Combination Cell Assay (Cell Titer Glo); type: cell-based; conditions: for IC50: Homo sapiens; for 10xLS: approximate concentration of Chk1 inhibitor that results in a 10-fold reduction in the IC50 of gemcitabine alone; for 2xLS: approximate concentration of Chk1 inhibitor that results in a two-fold reduction in the IC50 of gemcitabine alone
Method in brief: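 MIA PaCa-2 cells were treated 72 h with half-log dilutions of Chk1 inhibitor (top 3000 nM) and gemcitabine (top 100 nM), alone and in full matrix; viability by CellTiter-Glo luminescence. IC50s from four-parameter fit; Chk1 inhibitor concentrations giving two- and ten-fold lowering of gemcitabine IC50 were estimated.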

[1] = against Chk-1 kinase, read-out: IC50
[2] = Chk1 inhibitor alone, MIA PaCa-2 cells, 72 h, read-out: Chk1 IC50

Sequence of Chk-1 kinase (O14757 whole entry): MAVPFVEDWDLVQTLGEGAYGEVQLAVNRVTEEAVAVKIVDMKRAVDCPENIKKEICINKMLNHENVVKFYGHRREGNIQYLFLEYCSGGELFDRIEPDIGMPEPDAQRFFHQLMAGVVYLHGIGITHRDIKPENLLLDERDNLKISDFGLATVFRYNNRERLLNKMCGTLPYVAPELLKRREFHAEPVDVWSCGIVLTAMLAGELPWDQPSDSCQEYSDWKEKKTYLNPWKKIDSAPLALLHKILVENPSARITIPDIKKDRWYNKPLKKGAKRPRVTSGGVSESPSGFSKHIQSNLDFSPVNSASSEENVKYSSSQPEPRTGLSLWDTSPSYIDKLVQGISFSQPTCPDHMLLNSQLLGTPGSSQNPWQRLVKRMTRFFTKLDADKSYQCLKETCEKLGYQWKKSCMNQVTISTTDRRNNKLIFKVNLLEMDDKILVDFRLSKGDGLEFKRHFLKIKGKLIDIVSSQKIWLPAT

Row | Structure (SMILES) | IC50 (Chk-1 kinase; [1]) | IC50 (MIA PaCa-2 cells; [2]) | 10xLS (MIA PaCa-2 cells; MIA PaCa-2 cells, 72 h) | 2xLS (MIA PaCa-2 cells; MIA PaCa-2 cells, 72 h) | IC50 (Chk-1 kinase) | IC50 (MIA PaCa-2 cells; MIA PaCa-2, 72 h, read-out: Chk1 IC50 (nM))
1 | COc1cc(OCC2CCNCC2)ccc1-c1cc(Nc2cnc(C#N)cn2)n[nH]1 [Example 36, 5-[[5-[2-methoxy-4-(4-piperidylmethoxy)phenyl]-1H-pyrazol-3-yl]amino]pyrazine-2-carbonitrile] | 0.095 nM | 281 nM | 100 nM | 3 nM |  | 
2 | COc1cc(CNC2CCN(C)CC2)ccc1-c1cc(Nc2cnc(C#N)cn2)n[nH]1 [Example 37, 5-[[5-[2-methoxy-4-[[(1-methyl-4-piperidyl)amino]methyl]phenyl]-1H-pyrazol-3-yl]amino]pyrazine-2-carbonitrile] | 0.11 nM | 182 nM | <100 nM | 3 nM |  | 
3 | CC(C)Oc1cc(C2CCN(C)CC2)ccc1-c1cc(Nc2cnc(C#N)cn2)n[nH]1 [Example 38, 5-[[5-[2-isopropoxy-4-(1-methyl-4-piperidyl)phenyl]-1H-pyrazol-3-yl]amino]pyrazine-2-carbonitrile] | 0.88 nM | 2750 nM | 1000 nM | 100 nM |  | 
4 | COc1cc(C2CCCNC2)ccc1-c1cc(Nc2cnc(C#N)cn2)n[nH]1 (centres unmarked) [Example 39, 5-[[5-[2-methoxy-4-(3-piperidyl)phenyl]-1H-pyrazol-3-yl]amino]pyrazine-2-carbonitrile] | 0.18 nM | 168 nM | 30 nM | <3 nM |  | 
5 | COc1cc(C2CCCN(C)C2)ccc1-c1cc(Nc2cnc(C#N)cn2)n[nH]1 (centres unmarked) [Example 40, 5-[[5-[2-methoxy-4-(1-methyl-3-piperidyl)phenyl]-1H-pyrazol-3-yl]amino]pyrazine-2-carbonitrile] | 0.14 nM | 188 nM | 30 nM | <3 nM |  | 
6 | COc1cc(O[C@H]2CCN(C)C2)ccc1-c1cc(Nc2cnc(C#N)cn2)n[nH]1 [Example 42, 5-[[5-[2-methoxy-4-[(3S)-1-methylpyrrolidin-3-yl]oxy-phenyl]-1H-pyrazol-3-yl]amino]pyrazine-2-carbonitrile] | 0.21 nM | 73 nM | <30 nM | <3 nM |  | 
7 | COc1cc(C2CCNCC2)ccc1-c1cc(Nc2cnc(Cl)cn2)n[nH]1 [Example 43, 5-chloro-N-[5-[2-methoxy-4-(4-piperidyl)phenyl]-1H-pyrazol-3-yl]pyrazin-2-amine] | 0.73 nM | 1330 nM | 1000 nM | 100 nM |  | 
8 | COc1cc(C2CCN(C)CC2)ccc1-c1cc(Nc2cnc(Cl)cn2)n[nH]1 [Example 44, 5-chloro-N-[5-[2-methoxy-4-(1-methyl-4-piperidyl)phenyl]-1H-pyrazol-3-yl]pyrazin-2-amine] | 0.69 nM | 1260 nM | 1000 nM | 100 nM |  | 
9 | COc1cc(N2CCNCC2)ccc1-c1cc(Nc2cnc(C#N)cn2)n[nH]1 [Example 46, 5-[[5-(2-methoxy-4-piperazin-1-yl-phenyl)-1H-pyrazol-3-yl]amino]pyrazine-2-carbonitrile] |  | 442 nM | <30 nM | <3 nM | 0.054 nM | 
10 | COc1cc(C2C[C@H](C)N[C@@H](C)C2)ccc1-c1cc(Nc2cnc(C#N)cn2)n[nH]1 (stereo partly drawn) [Example 47, 5-[[5-[4-[(2S,6S)-2,6-dimethyl-4-piperidyl]-2-methoxy-phenyl]-1H-pyrazol-3-yl]amino]pyrazine-2-carbonitrile] | 0.23 nM | 235 nM | 100 nM | 3 nM |  | 
11 | COc1cc(C2CCOCC2)ccc1-c1cc(Nc2cnc(C#N)cn2)n[nH]1 [Example 48, 5-[[5-(2-methoxy-4-tetrahydropyran-4-yl-phenyl)-1H-pyrazol-3-yl]amino]pyrazine-2-carbonitrile] | 1.5 nM | 2020 nM | 1000 nM | 100 nM |  | 
12 | COc1cc(C2CCNCC2)ccc1-c1cc(Nc2ccc(C#N)c(F)c2)n[nH]1 [Example 49, 2-fluoro-4-[[5-[2-methoxy-4-(4-piperidyl)phenyl]-1H-pyrazol-3-yl]amino]benzonitrile] | 36 nM | 3570 nM | <3000 nM | 1000 nM |  | 
13 | COc1cc(C2CCNCC2)ccc1-c1cc(Nc2ccc(C#N)cn2)n[nH]1 [Example 50, 6-[[5-[2-methoxy-4-(4-piperidyl)phenyl]-1H-pyrazol-3-yl]amino]pyridine-3-carbonitrile] | 20 nM | > 3000 nM | 3000 nM | 300 nM |  | 
14 | N#Cc1cnc(Nc2cc(-c3ccc(C4CCNCC4)cc3F)[nH]n2)cn1 [Example 51, 5-[[5-[2-fluoro-4-(4-piperidyl)phenyl]-1H-pyrazol-3-yl]amino]pyrazine-2-carbonitrile] | 6.3 nM | > 3000 nM | 3000 nM | 300 nM |  | 
15 | COc1cc(C2CCNCC2)ccc1-c1cc(Nc2ccc(C#N)nc2)n[nH]1 [Example 52, 5-[[5-[2-methoxy-4-(4-piperidyl)phenyl]-1H-pyrazol-3-yl]amino]pyridine-2-carbonitrile] | 0.46 nM | 953 nM | 300 nM | 30 nM |  | 
16 | CC(C)Oc1cc(C2CCNCC2)ccc1-c1cc(Nc2cnc(C#N)cn2)n[nH]1 [Example 53, 5-[[5-[2-isopropoxy-4-(4-piperidyl)phenyl]-1H-pyrazol-3-yl]amino]pyrazine-2-carbonitrile] | 3.1 nM | 2300 nM | 1000 nM | 100 nM |  | 
17 | COc1cc(N2CCCNCC2)ccc1-c1cc(Nc2cnc(C#N)cn2)n[nH]1 [Example 54, 5-[[5-[4-(1,4-diazepan-1-yl)-2-methoxy-phenyl]-1H-pyrazol-3-yl]amino]pyrazine-2-carbonitrile] | 0.12 nM | 137 nM | 30 nM | <3 nM |  | 
18 | COc1cc(C2CCNCC2)ccc1-c1cc(Nc2cnc(C)cn2)n[nH]1 [Example 55, N-[5-[2-methoxy-4-(4-piperidyl)phenyl]-1H-pyrazol-3-yl]-5-methyl-pyrazin-2-amine] | 227 nM | > 3000 nM | >3000 nM | 1000 nM |  | 
19 | N#Cc1cnc(Nc2cc(-c3ccc(C4CCNCC4)cc3)[nH]n2)cn1 [Example 56, 5-[[5-[4-(4-piperidyl)phenyl]-1H-pyrazol-3-yl]amino]pyrazine-2-carbonitrile] | 183 nM | > 3000 nM | >3000 nM | 1000 nM |  | 
20 | COc1cc(OC2CCNCC2)ccc1-c1cc(Nc2cnc(C#N)cn2)n[nH]1 [Example 57, 5-[[5-[2-methoxy-4-(4-piperidyloxy)phenyl]-1H-pyrazol-3-yl]amino]pyrazine-2-carbonitrile] | 0.071 nM | 337 nM | 100 nM | 3 nM |  | 
21 | COc1cc(C2CCNCC2)c(F)cc1-c1cc(Nc2cnc(C#N)cn2)n[nH]1 [Example 58, 5-[[5-[5-fluoro-2-methoxy-4-(4-piperidyl)phenyl]-1H-pyrazol-3-yl]amino]pyrazine-2-carbonitrile] | 0.54 nM | 676 nM | 300 nM | 30 nM |  | 
22 | COc1cc(CNC(C)C)ccc1-c1cc(Nc2cnc(C#N)cn2)n[nH]1 [Example 59, 5-[[5-[4-[(isopropylamino)methyl]-2-methoxy-phenyl]-1H-pyrazol-3-yl]amino]pyrazine-2-carbonitrile] | 0.071 nM | 263 nM | 100 nM | 3 nM |  | 
23 | CCN1CCC(c2ccc(-c3cc(Nc4cnc(C#N)cn4)n[nH]3)c(OC)c2)CC1 [Example 60, 5-[[5-[4-(1-ethyl-4-piperidyl)-2-methoxy-phenyl]-1H-pyrazol-3-yl]amino]pyrazine-2-carbonitrile hydrochloride] | 0.1 nM |  | 100 nM | 3 nM |  | 329 nM
